Experimental data taken from patent publication US4461771A, “Treatment of migraine with dioxopiperidine derivatives” (priority 1983, dated 1984).
Counter-ions that a name gives are not always drawn.

How the values were obtained:
tryptophan hydroxylase = test: Inhibition of the depolarisation induction of tryptophan hydroxylase in rat brainstem slices; format: cell-based; details: 37° C., from concentration response curves, read-out: IC50, concentration causing 50 percent inhibition of the depolarisation induction of tryptophan hydroxylase
Protocol: The activity of the compounds as inhibitors of the depolarisation induction of tryptophan hydroxylase can be assessed by determining the IC50 in rat brainstem slices as described by Margaret C. Boadle-Biber, Biochemical Pharmacology 27 1069 (1978). The IC50 values are derived from concentration response curves as the concentration causing 50 percent inhibition of the depolarisation induction at 37° C. As an illustration the IC50 of d,l 3-(3'-methoxyphenyl)-3-(3"-N,N-dimethylaminopropyl)-4,4-dimethyl-2,6-dioxopiperidine hydrochloride is 10 μM.

5-HT transmission = test: Fenfluramine-induced hyperthermia in rats (reduction of 5-HT transmission in vivo); details: four day chronic pretreatment, 10 mg/kg ip. twice daily, fenfluramine 7.5 mg/kg ip.
Protocol: The activity of the compounds to reduce 5-HT transmission can be assessed in vivo by measuring their effect on the hyperthermia induced by an intraperitoneal injection of fenfluramine (see A. Sulpizio et al, Life Sciences 22 1439 (1978). As an illustration a four day chronic pretreatment of rats with 3-(3'-methoxyphenyl)-3-(3"-N,N dimethylaminopropyl) 4,4-dimethyl-2,6-dioxopiperidine hydrochloride at a dose level of 10 mg/kg ip. twice daily produced a 50 percent reduction in the hyperthermia induced by fenfluramine administered at a dose level of 7.5 mg/kg ip.

## COc1cccc(C2(CCCN(C)C)C(=O)NC(=O)CC2(C)C)c1 (racemic) [Example 1, 3-(3'-Methoxyphenyl-3-(3"-N,N-dimethylaminopropyl)-4,4-dimethyl-2,6-dioxopiperidine hydrochloride]
Tryptophan hydroxylase
  IC50: 10 µM
5-HT transmission
  reduction in the hyperthermia induced by fenfluramine: 50%
